Experimental data taken from BigSolDB 2.1.

Question: Which results are given for `Cc1ccc(C(=O)O)cc1`?
Answer: solubility (mole fraction) (in acetone, 278.15 K): 0.0354; solubility (mole fraction) (in acetone, 283.15 K): 0.041; solubility (mole fraction) (in acetone, 288.15 K): 0.0469; solubility (mole fraction) (in acetone, 293.15 K): 0.0544; solubility (mole fraction) (in acetone, 298.15 K): 0.062; solubility (mole fraction) (in acetone, 303.15 K): 0.0728; solubility (mole fraction) (in acetone, 308.15 K): 0.0838; solubility (mole fraction) (in acetone, 313.15 K): 0.0943; solubility (mole fraction) (in acetone, 318.15 K): 0.11; solubility (mole fraction) (in acetone, 323.15 K): 0.125; solubility (mole fraction) (in acetonitrile, 278.15 K): 0.00596; solubility (mole fraction) (in acetonitrile, 283.15 K): 0.0068; solubility (mole fraction) (in acetonitrile, 288.15 K): 0.00776; solubility (mole fraction) (in acetonitrile, 293.15 K): 0.0087; solubility (mole fraction) (in acetonitrile, 298.15 K): 0.00976; solubility (mole fraction) (in acetonitrile, 303.15 K): 0.0112; solubility (mole fraction) (in acetonitrile, 308.15 K): 0.0127; solubility (mole fraction) (in acetonitrile, 313.15 K): 0.0146; solubility (mole fraction) (in acetonitrile, 318.15 K): 0.0163; solubility (mole fraction) (in acetonitrile, 323.15 K): 0.0187; solubility (mole fraction) (in ethanol, 278.15 K): 0.0272; solubility (mole fraction) (in ethanol, 283.15 K): 0.0308; solubility (mole fraction) (in ethanol, 288.15 K): 0.0346; solubility (mole fraction) (in ethanol, 293.15 K): 0.0396; solubility (mole fraction) (in ethanol, 298.15 K): 0.0442; solubility (mole fraction) (in ethanol, 303.15 K): 0.05; solubility (mole fraction) (in ethanol, 308.15 K): 0.0549; solubility (mole fraction) (in ethanol, 313.15 K): 0.0603; solubility (mole fraction) (in ethanol, 318.15 K): 0.0684; solubility (mole fraction) (in ethanol, 323.15 K): 0.0765; solubility (mole fraction) (in isopropanol, 278.15 K): 0.0397; solubility (mole fraction) (in isopropanol, 283.15 K): 0.0437; solubility (mole fraction) (in isopropanol, 288.15 K): 0.0488; solubility (mole fraction) (in isopropanol, 293.15 K): 0.0528; solubility (mole fraction) (in isopropanol, 298.15 K): 0.0588; solubility (mole fraction) (in isopropanol, 303.15 K): 0.0648; solubility (mole fraction) (in isopropanol, 308.15 K): 0.0715; solubility (mole fraction) (in isopropanol, 313.15 K): 0.0779; solubility (mole fraction) (in isopropanol, 318.15 K): 0.0868; solubility (mole fraction) (in isopropanol, 323.15 K): 0.0959; solubility (mole fraction) (in methanol, 278.15 K): 0.0354; solubility (mole fraction) (in methanol, 283.15 K): 0.041; solubility (mole fraction) (in methanol, 288.15 K): 0.0485; solubility (mole fraction) (in methanol, 293.15 K): 0.0568; solubility (mole fraction) (in methanol, 298.15 K): 0.0636; solubility (mole fraction) (in methanol, 303.15 K): 0.0744; solubility (mole fraction) (in methanol, 308.15 K): 0.0865; solubility (mole fraction) (in methanol, 313.15 K): 0.0999; solubility (mole fraction) (in methanol, 318.15 K): 0.115; solubility (mole fraction) (in methanol, 323.15 K): 0.132; solubility (mole fraction) (in n-butanol, 278.15 K): 0.0359; solubility (mole fraction) (in n-butanol, 283.15 K): 0.0396; solubility (mole fraction) (in n-butanol, 288.15 K): 0.0444; solubility (mole fraction) (in n-butanol, 293.15 K): 0.051; solubility (mole fraction) (in n-butanol, 298.15 K): 0.0578; solubility (mole fraction) (in n-butanol, 303.15 K): 0.0651; solubility (mole fraction) (in n-butanol, 308.15 K): 0.0735; solubility (mole fraction) (in n-butanol, 313.15 K): 0.0836; solubility (mole fraction) (in n-butanol, 318.15 K): 0.094; solubility (mole fraction) (in n-butanol, 323.15 K): 0.105
